Source: patent US5747239A, “Synthetic peptides specific for the detection of antibodies to HCV, diagnosis of HCV infection and preventions thereof as vaccines” (United Biomedical, Inc., priority 1994, dated 1998)

Experiments:
Assay type in all cases: binding, human
antibodies to HCV [1] = assay: Peptide ELISA for relative immunoreactivity, 8 member HCV serum panel (Panel I); design: relative immunoreactivity value: concentration or dose not given beside the values
How it was run: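 Wells coated with peptides at 5 ug/mL in 10 mM NaHCO3 pH 9.5, gelatin-blocked, then probed with eight HCV antibody-positive sera at 1:20 for 15 min at 37° C. HRP goat anti-human IgG (1:1800, 15 min), OPD/H2O2 substrate, acid-stopped, A492 read; immunoreactivity expressed relative to peptide IIH.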

antibodies to HCV [2] = assay: NS-5 peptide ELISA, group of 5 HCV positive sera
Method: Wells of 96-well plates were coated for 1 hour at 37° C. with each of the three peptides derived from the NS-5 region of HCV (designated as pep4, pep5 and pep6).

antibodies to HCV [3] = assay: EIA of pep3 after different extraction conditions following HF cleavage; details: for % Decrease: Pep3' versus Pep3
Source text: Peptide extraction conditions after HF cleavage were altered to test for their effect on peptide immunopotency after HF cleavage. Pep3 (or 279A) was extracted with acetic acid at pH 2, whereas pep3' was extracted with ammonium bicarbonate at pH 8.

[4] = tested on: antibodies to peptide VIIIE; assay: Presence of antibodies to peptide VIIIE in sera

Molecule: DAELIEANLLWRQEMGGNITRVESENKVVILDSFDPLVAEEDER [Pep5]
- % IP (antibodies to HCV [1]; NS-5 peptides (Table 12), Panel I, pep11 as a standard): 47.6%
- % Relative Immunoreactivity (antibodies to HCV [2]; NS-5 peptides, 5 HCV positive sera, Pep5 = 100): 100.0%
- EIA reading per sample (antibodies to HCV [2]; Sample No. 1): 2.942
- EIA reading per sample (antibodies to HCV [2]; Sample No. 2): 0.370
- EIA reading per sample (antibodies to HCV [2]; Sample No. 3): 0.616
- EIA reading per sample (antibodies to HCV [2]; Sample No. 4): 1.316
- EIA reading per sample (antibodies to HCV [2]; Sample No. 5): 1.783

Molecule: Pep3': pep3 (279A) sequence extracted with ammonium bicarbonate at pH 8 after HF cleavage (GCSGGAYDIIICDECHSTDATSILGIGTVLDQAETAG)
- share of the panel reactive (antibodies to HCV [1]; Panel I): half of the panel is reactive
- relative immunoreactivity value (antibodies to HCV [1]; Panel I, compared with peptide VIIIE): 23.9%
- absorbances of some additional reactive samples (antibodies to HCV [1]; additional reactive samples): > 2000 mA
- A492 nm (mA) by EIA (antibodies to HCV [3]; NRC: Negative Control): 1 mA
- % Decrease (antibodies to HCV [3]; SRC): 77.6%
- % Decrease (antibodies to HCV [3]; WRC): 89.6%
- % Decrease (antibodies to HCV [3]; sample #1): 78.8%
- % Decrease (antibodies to HCV [3]; sample #2): 90.0%
- % Decrease (antibodies to HCV [3]; sample #3): 91.5%
- % Decrease (antibodies to HCV [3]; sample #4): 99.3%
- % Decrease (antibodies to HCV [3]; sample #5): 88.0%

B1: STIPKPQRKTKRNTNRRPQDVKFPGGGQIVGGVYLLPRRGPRLGVRATRKTSERSQPRGRR (peptide)
peptide: STIPKPQRKTKRNTNRRPQDVKFPGGGQIVGGVYLLPRRGPRLGVRATRKTSERSQPRGRR
- A492 nm (antibodies to HCV [1]; Panel I serum No. 1, peptide coated at 5 ug/mL, serum 1:20): 2.745
- A492 nm (antibodies to HCV [1]; Panel I serum No. 2): 2.208
- A492 nm (antibodies to HCV [1]; Panel I serum No. 3): 2.468
- A492 nm (antibodies to HCV [1]; Panel I serum No. 4): 3.032
- A492 nm (antibodies to HCV [1]; Panel I serum No. 5): 0.054
- A492 nm (antibodies to HCV [1]; Panel I serum No. 6): 2.108
- A492 nm (antibodies to HCV [1]; Panel I serum No. 7): 0.730
- A492 nm (antibodies to HCV [1]; Panel I serum No. 8): 3.006
- samples of the HCV serum panel that reacted (antibodies to HCV [1]; Panel I, 8 samples): 7 out of 8
- % Relative Immunoreactivity (antibodies to HCV [1]; Panel I, peptide IIH as the reference): 98%
- % Relative Immunoreactivity (antibodies to HCV [1]; capsid peptides, Panel I, relative to VIIIE, coated at 5, 1 and 0.2 μg/mL): 100.0%
- A492 nm Total (antibodies to HCV [1]; sum over Panel I No. 1 to 8): 16.351
- antibodies to the peptide present in ([4]; HBsAg positive individuals): 15-20%
- antibodies to the peptide present in ([4]; normal controls): 1-2%
